Key:
Test in all cases: relative viability (nuclei count vs DMSO), 5 days (fraction); higher = more cells survive
CAP-232 + Crizotinib = compound: C[C@H]([C@@H](C(=O)N)NC(=O)[C@@H]1CSSC[C@@H](C(=O)N[C@H](C(=O)N[C@@H](C(=O)N[C@H](C(=O)N1)CCCCN)CC2=CNC3=CC=CC=C32)CC4=CC=C(C=C4)O)NC(=O)[C@@H](CC5=CC=CC=C5)N)O [CAP-232] + C[C@@H](Oc1cc(-c2cnn(C3CCNCC3)c2)cnc1N)c1c(Cl)ccc(F)c1Cl [Crizotinib] (partner 1 µM)
Procedure, shortened: (§1)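 Medians of duplicate plates are given as relative viability. That measure is the nuclei count in treated wells divided by the count in vehicle wells. Counts were taken on 4× images of lung cancer cell lines in 1536-well plates, 5 days after pin-tool dosing the day after seeding with one drug alone or a fixed anchor-drug dose plus five library-drug doses (not always all listed) in √10 steps.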

CAP-232 + Luminespib = compound: C[C@H]([C@@H](C(=O)N)NC(=O)[C@@H]1CSSC[C@@H](C(=O)N[C@H](C(=O)N[C@@H](C(=O)N[C@H](C(=O)N1)CCCCN)CC2=CNC3=CC=CC=C32)CC4=CC=C(C=C4)O)NC(=O)[C@@H](CC5=CC=CC=C5)N)O [CAP-232] + CCNC(=O)c1noc(-c2cc(C(C)C)c(O)cc2O)c1-c1ccc(CN2CCOCC2)cc1 [Luminespib] (partner 0.01 µM)
Procedure, shortened: as §1

CAP-232 + Linsitinib = compound: C[C@H]([C@@H](C(=O)N)NC(=O)[C@@H]1CSSC[C@@H](C(=O)N[C@H](C(=O)N[C@@H](C(=O)N[C@H](C(=O)N1)CCCCN)CC2=CNC3=CC=CC=C32)CC4=CC=C(C=C4)O)NC(=O)[C@@H](CC5=CC=CC=C5)N)O [CAP-232] + C[C@]1(O)C[C@@H](c2nc(-c3ccc4ccc(-c5ccccc5)nc4c3)c3c(N)nccn32)C1 [Linsitinib] (partner 1 µM)
Procedure, shortened: as §1

CAP-232 + Pictilisib = compound: C[C@H]([C@@H](C(=O)N)NC(=O)[C@@H]1CSSC[C@@H](C(=O)N[C@H](C(=O)N[C@@H](C(=O)N[C@H](C(=O)N1)CCCCN)CC2=CNC3=CC=CC=C32)CC4=CC=C(C=C4)O)NC(=O)[C@@H](CC5=CC=CC=C5)N)O [CAP-232] + CS(=O)(=O)N1CCN(Cc2cc3nc(-c4cccc5[nH]ncc45)nc(N4CCOCC4)c3s2)CC1 [Pictilisib] (partner 1 µM)
Procedure, shortened: as §1

CAP-232 + Phenformin = compound: C[C@H]([C@@H](C(=O)N)NC(=O)[C@@H]1CSSC[C@@H](C(=O)N[C@H](C(=O)N[C@@H](C(=O)N[C@H](C(=O)N1)CCCCN)CC2=CNC3=CC=CC=C32)CC4=CC=C(C=C4)O)NC(=O)[C@@H](CC5=CC=CC=C5)N)O [CAP-232] + N=C(N)NC(=N)NCCc1ccccc1 [Phenformin] (partner 250 µM)
Procedure, shortened: as §1

Cell Line	relative viability (CAP-232 + Crizotinib; first compound 0.4 µM)	relative viability (CAP-232 + Crizotinib; first compound 1.265 µM)	relative viability (CAP-232 + Crizotinib; first compound 4 µM)	relative viability (CAP-232 + Crizotinib; first compound 12.65 µM)	relative viability (CAP-232 + Luminespib; first compound 0.4 µM)	relative viability (CAP-232 + Luminespib; first compound 1.265 µM)	relative viability (CAP-232 + Luminespib; first compound 4 µM)	relative viability (CAP-232 + Luminespib; first compound 12.65 µM)	relative viability (CAP-232 + Linsitinib; first compound 0.4 µM)	relative viability (CAP-232 + Linsitinib; first compound 1.265 µM)	relative viability (CAP-232 + Linsitinib; first compound 4 µM)	relative viability (CAP-232 + Linsitinib; first compound 12.65 µM)	relative viability (CAP-232 + Pictilisib; first compound 0.4 µM)	relative viability (CAP-232 + Pictilisib; first compound 1.265 µM)	relative viability (CAP-232 + Pictilisib; first compound 4 µM)	relative viability (CAP-232 + Pictilisib; first compound 12.65 µM)	relative viability (CAP-232 + Phenformin; first compound 0.4 µM)	relative viability (CAP-232 + Phenformin; first compound 1.265 µM)	relative viability (CAP-232 + Phenformin; first compound 4 µM)	relative viability (CAP-232 + Phenformin; first compound 12.65 µM)
NCI-H2228	0.637	0.407	0.526	0.461	0.142	0.128	0.189	0.177	0.596	0.581	0.521	0.646	0.381	0.768	0.369	0.269	0.38	0.253	0.409	0.221
NCI-H1975	1.11	1.07	1.08	0.892	0.256	0.195	0.195	0.185	1.03	1.02	1.07	0.65	0.262	0.261	0.313	0.191	0.449	0.413	0.437	0.332
NCI-H647	1.28	1.01	1.05	0.871	0.12	0.114	0.211	0.203	1.09	1.13	1.5	0.851	0.431	0.354	0.482	0.365	0.434	0.561	0.637	0.401
A-427	0.881	0.913	0.908	0.93	0.697	0.968	0.87	1.03	1.14	1.09	1.15	1.12	0.508	0.654	0.842	0.853	0.249	0.332	0.259	0.312
LXF-289	0.843	0.803	0.784	0.841	0.787	0.642	0.581	0.775	1.05	0.952	0.992	0.983	0.817	0.768	0.755	0.798	0.508	0.519	0.512	0.554
NCI-H838	1.03	0.804	0.981	0.65	0.321	0.266	0.349	0.246	1.09	1.01	1.08	0.595	0.439	0.357	0.475	0.345	0.609	0.53	0.593	0.537
NCI-H1437	1.11	0.927	1.05	0.81	1.17	1.13	1.24	0.812	1.04	1.03	1.17	0.664	0.38	0.426	0.515	0.279	0.297	0.307	0.327	0.254
SK-LU-1	0.689	0.988	0.781	0.912	0.198	0.211	0.183	0.207	1.06	1.2	1.15	1.06	0.605	0.547	0.651	0.462	0.503	0.553	0.67	0.482
NCI-H1792	1.37	1.02	0.834	0.722	0.375	0.445	0.371	0.279	0.493	0.56	0.654	0.285	0.26	0.323	0.3	0.204	0.129	0.193	0.247	0.188
HCC-44	0.866	0.812	0.863	0.846	1.35	1.01	0.759	1	0.817	0.666	0.754	0.627	0.675	0.616	0.428	0.594	0.392	0.128	0.194	0.171
EPLC-272H	1.16	0.836	0.791	0.887	0.256	0.198	0.219	0.157	1.33	1.02	1.3	1.09	0.284	0.281	0.325	0.287	0.276	0.285	0.319	0.322
NCI-H358	0.435	0.426	0.473	0.511	0.241	0.289	0.376	0.352	0.548	0.686	0.796	0.584	0.28	0.301	0.298	0.402	0.319	0.295	0.278	0.315
NCI-H596	1.15	0.988	0.89	1.05	1.03	1.03	0.988	0.901	1.05	1.05	1.14	1.06	0.421	0.388	0.36	0.328	0.679	0.604	0.899	0.653
NCI-H322M	1.01	0.903	0.841	0.778	0.686	0.832	0.809	0.565	1.14	0.916	0.941	0.959	0.54	0.556	0.519	0.487	0.873	0.709	0.759	0.862
NCI-H1563	0.965	0.911	0.835	0.777	0.461	0.52	0.455	0.462	1.36	1.12	1.21	0.829	0.677	0.626	0.689	0.486	0.698	0.643	0.598	0.37
